Columns and labels:
[1] = species: Homo sapiens; assay: Inhibition of glutathione S-transferase (unknown origin) using CDNB as substrate at 50 uM by spectrophotometric analysis relative to control
[2] = target: T1, Glutathione-S-transferase (Schistosoma japonicum, UniProt Q26513); assay: Inhibition of Schistosoma japonicum GST by spectrophotometric analysis
T1 sequence (Q26513 whole entry): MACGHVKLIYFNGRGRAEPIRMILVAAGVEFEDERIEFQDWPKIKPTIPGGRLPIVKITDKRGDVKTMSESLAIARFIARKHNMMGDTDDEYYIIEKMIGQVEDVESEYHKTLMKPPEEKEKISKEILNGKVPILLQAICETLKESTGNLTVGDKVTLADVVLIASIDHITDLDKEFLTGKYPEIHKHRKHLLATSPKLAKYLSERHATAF

[3] = target: T2, Glutathione S-transferase Mu 2 (Homo sapiens, UniProt P28161); assay: Inhibition of human GSTM2 by spectrophotometric analysis
T2 sequence (P28161 whole entry): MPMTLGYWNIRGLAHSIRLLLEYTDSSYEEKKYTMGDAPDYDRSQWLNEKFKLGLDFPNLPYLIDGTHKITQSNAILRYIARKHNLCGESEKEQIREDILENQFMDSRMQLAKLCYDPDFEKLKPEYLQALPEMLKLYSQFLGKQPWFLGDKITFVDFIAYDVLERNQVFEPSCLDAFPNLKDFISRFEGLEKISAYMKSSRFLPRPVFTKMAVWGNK

| SMILES | inhibition [1] [%] | IC50 [2] [µM] | IC50 [3] [µM] |
| --- | --- | --- | --- |
| COc1cc(/C=C/C(=O)CC(=O)/C=C/c2ccc(O)c(OC)c2)ccc1O [CURCUMIN] |  |  | 1.81 |
| O=c1c2cc(Br)ccc2nc(-c2ccc(Cl)s2)n1Cc1ccc(Cl)cc1 | 20.2 |  |  |
| O=C(O)c1cccc(-c2ccc3nc(-c4ccc(Cl)s4)n(Cc4ccc(Cl)cc4)c(=O)c3c2)c1 | 55.6 |  |  |
| Cn1nccc1-c1nc2ccc(-c3ccccc3-c3nn[nH]n3)cc2c(=O)n1Cc1ccc(Cl)cc1 | 65.3 |  |  |
| O=c1c2cc(-c3ccccc3-c3nn[nH]n3)ccc2nc(-c2cccc(Cl)c2)n1Cc1ccc(Cl)cc1 | 45.8 |  |  |
| O=c1c2cc(-c3ccccc3-c3nn[nH]n3)ccc2ncn1Cc1ccc(Cl)cc1 | 20.3 |  |  |
| COC(=O)c1ccccc1-c1ccc2nc(-c3ccc(Cl)s3)n(Cc3ccc(Cl)cc3)c(=O)c2c1 | 24.8 |  |  |
| O=C(O)c1cc(-c2ccc3nc(-c4ccc(Cl)s4)n(Cc4ccc(Cl)cc4)c(=O)c3c2)ccc1F | 54.4 |  |  |
| NC(=O)c1cccc(-c2ccc3nc(-c4ccc(Cl)s4)n(Cc4ccc(Cl)cc4)c(=O)c3c2)c1 | 24.6 |  |  |
| C=C(CC)C(=O)c1ccc(OCC(=O)O)c(Cl)c1Cl [ETHACRYNIC ACID] |  | 1.84 | > 20 |
| CS(=O)(=O)c1ccccc1-c1ccc2nc(-c3ccc(Cl)s3)n(Cc3ccc(Cl)cc3)c(=O)c2c1 | 12.9 |  |  |

Next, values leading:

| inhibition [1] [%] | IC50 [2] [µM] | IC50 [3] [µM] | SMILES |
| --- | --- | --- | --- |
| 92.5 | 5.46 | 4.03 | O=c1c2cc(-c3ccccc3-c3nn[nH]n3)ccc2nc(-c2ccc(Cl)s2)n1Cc1ccc(Cl)cc1 |
| 87.3 | 9.47 | 2.4 | O=C(O)CCn1c(-c2ccc(Cl)s2)nc2ccc(-c3ccccc3-c3nn[nH]n3)cc2c1=O |
| 76.6 |  |  | O=C(O)CCCn1c(-c2ccc(Cl)s2)nc2ccc(-c3ccccc3-c3nn[nH]n3)cc2c1=O |
| 83.6 | 8.86 | 3.38 | O=c1c2cc(-c3ccccc3-c3nn[nH]n3)ccc2nc(-c2ccc(Cl)s2)n1Cc1ccccc1 |
| 89 | 4.26 | 6.15 | O=c1c2cc(-c3ccccc3-c3nn[nH]n3)ccc2nc(-c2cccs2)n1Cc1ccc(Cl)cc1 |
| 90.8 |  |  | O=c1c2cc(-c3ccccc3-c3nn[nH]n3)ccc2nc(-c2ccc(Cl)s2)n1CCc1ccc(Cl)cc1 |
| 87.5 |  |  | CCOC(=O)CCn1c(-c2ccc(Cl)s2)nc2ccc(-c3ccccc3-c3nn[nH]n3)cc2c1=O |
| 78.7 | 16.6 | > 20 | O=C(O)c1ccccc1-c1ccc2nc(-c3ccc(Cl)s3)n(Cc3ccc(Cl)cc3)c(=O)c2c1 |
| 98.8 | 1.55 | 2.02 | O=C(O)C(Cc1ccc(Cl)cc1)Cn1c(-c2ccc(Cl)s2)nc2ccc(-c3ccccc3-c3nn[nH]n3)cc2c1=O (stereo not drawn) |
